In ChEMBL document CHEMBL5537121, “Synthesis and biological evaluation of structurally diverse 6-aryl-3-aroyl-indole analogues as inhibitors of tubulin polymerization” (Eur J Med Chem, 2024):
The source made the active and inactive calls. The calls are words filed in the database; no cut-off is given here.

Assays:
[1] = Inhibition of bovine brain tubulin polymerization preincubated for 15 mins followed by GTP addition and measured after 20 mins by spectrophotometric analysis; design: species or system Bos taurus
Tubulin (Homo sapiens) [2] = target: T1, Tubulin (Homo sapiens) (UniProt P68371+Q9H4B7+P0DPH7+P68366+Q13509+Q71U36+P04350+Q3ZCM7+P07437+P68363+Q9BQE3+Q6PEY2+Q13885+Q9BVA1+Q9BUF5); assay: Inhibition of [3H]Colchicine binding to tubulin (unknown origin) at 5 uM incubated for 10 mins by scintillation counter relative to control; format: protein-complex assay
MCF7 = assay: Cytotoxicity against human MCF7 cells assessed as cell growth inhibition incubated for 96 hrs by SRB assay; format: functional
MDA-MB-231 [3] = assay: Cytotoxicity against human MDA-MB-231 cells assessed as cell growth inhibition incubated for 96 hrs by SRB assay; format: functional
[4] = Aqueous solubility of compound; format: physicochemical; details: water
Mus musculus [5] = assay: Vascular disrupting activity in BALB/c mouse implanted with mouse orthotopic RENCA-luc assessed as reduction in bioluminescence imaging signal at 100 mg/kg administered as single dose and measured at 2.5 hrs by imaging analysis; format: functional, organism-based
Mus musculus [6] = assay: Vascular disrupting activity in BALB/c mouse implanted with mouse orthotopic RENCA-luc assessed as reduction in bioluminescence imaging signal at 150 mg/kg administered as single dose and measured at 2.5 hrs by imaging analysis relative to control; format: functional; design: scale not given: the % may be the effect or the level left
Mus musculus [7] = assay: Vascular disrupting activity in BALB/c mouse implanted with mouse orthotopic RENCA-luc assessed as hemorrhage at 150 mg/kg administered as single dose and measured after 2.5 hrs by H&E staining based analysis; format: functional, organism-based
Mus musculus [8] = assay: Vascular disrupting activity in BALB/c mouse implanted with mouse orthotopic RENCA-luc assessed as necrosis at 150 mg/kg administered as single dose and measured after 2.5 hrs by H&E staining based analysis; format: functional, organism-based
Tubulin (Homo sapiens) [9] = target: T1, Tubulin (Homo sapiens); assay: Inhibition of [3H]Colchicine binding to tubulin (unknown origin) at 0.5 uM incubated for 10 mins by scintillation counter relative to control; format: protein-complex assay
Tubulin (Homo sapiens) [10] = target: T1, Tubulin (Homo sapiens); assay: Induction of microtubule disruption in human MDA-MB-231 cells assessed as reduction in fluorescence at 100 nM measured at <1.5 mins by ViaFluor 488 live cell microtubule and Hoechst 33342 staining based fluorescence microscopic analysis
Tubulin (Homo sapiens) [11] = target: T1, Tubulin (Homo sapiens); assay: Induction of microtubule disruption in human MDA-MB-231 cells at 100 nM measured at 30 mins by ViaFluor 488 live cell microtubule and Hoechst 33342 staining based fluorescence microscopic analysis
MDA-MB-231 [12] = assay: Induction of G2/M phase cell cycle arrest in human MDA-MB-231 cells at 200 to 500 nM incubated for 48 hrs by PI staining based flow cytometric analysis; format: functional; details: dose 200-500 nM
MDA-MB-231 [13] = assay: Inhibition of cell migration in human MDA-MB-231 cells at 50 nM incubated for 4 hrs by scratch assay; format: functional, cell-based
MDA-MB-231 [14] = assay: Inhibition of cell migration in human MDA-MB-231 cells at 50 nM incubated for 6 hrs by scratch assay; format: functional, cell-based
MDA-MB-231 [15] = assay: Inhibition of cell proliferation in human MDA-MB-231 cells at 50 nM incubated for 6 hrs by scratch assay; format: functional, cell-based
MDA-MB-231 [16] = assay: Inhibition of cell migration in human MDA-MB-231 cells at 50 nM incubated for 72 hrs by scratch assay; format: functional, cell-based
MDA-MB-231 [17] = assay: Induction of morphological changes in human MDA-MB-231 cells at 100 nM measured within 2 hrs by scratch assay; format: functional, cell-based
MDA-MB-231 [18] = assay: Induction of morphological changes in human MDA-MB-231 cells assessed as cell rounding at 100 nM measured after 20 hrs by scratch assay relative to control; format: functional
MDA-MB-231 [19] = assay: Inhibition of cell migration in human MDA-MB-231 cells at 100 nM incubated for 20 hrs by scratch assay; format: functional, cell-based
MDA-MB-231 [20] = assay: Inhibition of cell proliferation in human MDA-MB-231 cells at 100 nM incubated for 20 hrs by scratch assay; format: functional, cell-based
MDA-MB-231 [21] = assay: Inhibition of cell migration in human MDA-MB-231 cells at 100 nM incubated for 30 hrs by scratch assay; format: functional, cell-based
MDA-MB-231 [22] = assay: Induction of morphological changes in human MDA-MB-231 cells at 200 nM measured within 1 hrs by scratch assay; format: functional, cell-based
MDA-MB-231 [23] = assay: Induction of morphological changes in human MDA-MB-231 cells assessed as cell rounding at 200 nM measured after 14 hrs by scratch assay; format: functional
MDA-MB-231 [24] = assay: Inhibition of cell migration in human MDA-MB-231 cells at 200 nM by scratch assay; format: functional, cell-based
MDA-MB-231 [25] = assay: Inhibition of cell proliferation in human MDA-MB-231 cells at 200 nM by scratch assay; format: functional, cell-based

Structure (SMILES)	IC50 [1]	inhibition (Tubulin (Homo sapiens) [2])	GI50 (MCF7)	GI50 (MDA-MB-231 [3])	other results
COc1cccc(-c2ccc3c(C(=O)c4cc(OC)c(OC)c(OC)c4)c[nH]c3c2)c1	370 nM	87%	23 nM	36 nM	–
COc1cc(C(=O)c2c[nH]c3cc(-c4ccc(C(C)=O)s4)ccc23)cc(OC)c1OC	> 20000 nM	–	73 nM	3230 nM	–
COc1cc(C(=O)c2c[nH]c3cc(-c4cccc(OP(=O)([O-])[O-])c4)ccc23)cc(OC)c1OC.[Na+].[Na+]	9000 nM	–	4200 nM	694 nM	solubility [4]: ≤ 2400 µg/mL; Activity (Mus musculus [5]): Active; Activity (Mus musculus [6]): >90%; Activity (Mus musculus [7]): Active; Activity (Mus musculus [8]): Active
COc1cc(C(=O)c2c[nH]c3cc(-c4ccc(C(F)(F)F)cc4)ccc23)cc(OC)c1OC	> 20000 nM	–	1400 nM	4060 nM	–
COc1cc(C(=O)c2c[nH]c3cc(-c4cccc(N)c4)ccc23)cc(OC)c1OC	420 nM	91%	65 nM	25 nM	inhibition (Tubulin (Homo sapiens) [9]): 51%
COc1ccc(-c2ccc3c(C(=O)c4cc(OC)c(OC)c(OC)c4)c[nH]c3c2)cc1	2500 nM	9.1%	98 nM	1860 nM	–
CCc1ccc(-c2ccc3c(C(=O)c4cc(OC)c(OC)c(OC)c4)c[nH]c3c2)cc1	> 20000 nM	–	1800 nM	2220 nM	–
COc1cc(C(=O)c2c[nH]c3cc(-c4cc5ccccc5o4)ccc23)cc(OC)c1OC	> 20000 nM	–	950 nM	2070 nM	–
COc1cc(C(=O)c2c[nH]c3cc(-c4cccc(O)c4)ccc23)cc(OC)c1OC	570 nM	87%	320 nM	102 nM	Activity (Tubulin (Homo sapiens) [10]): Active; Activity (Tubulin (Homo sapiens) [11]): Active; Activity (MDA-MB-231 [12]): Active; inhibition (MDA-MB-231 [13]): Active; inhibition (MDA-MB-231 [14]): inactive; inhibition (MDA-MB-231 [15]): inactive; inhibition (MDA-MB-231 [16]): inactive; Activity (MDA-MB-231 [17]): Active; Activity (MDA-MB-231 [18]): <90%; inhibition (MDA-MB-231 [19]): Active; inhibition (MDA-MB-231 [20]): Active; inhibition (MDA-MB-231 [21]): Active; Activity (MDA-MB-231 [22]): Active; Activity (MDA-MB-231 [23]): >90%; inhibition (MDA-MB-231 [24]): Active; inhibition (MDA-MB-231 [25]): Active
COc1cc(C(=O)c2c[nH]c3cc(-c4ccccc4)ccc23)cc(OC)c1OC	280 nM	86%	73 nM	156 nM	–
COc1ccc(/C=C\c2cc(OC)c(OC)c(OC)c2)cc1O [COMBRETASTATIN A4]	–	–	9 nM	3.5 nM	–
COc1cc(C(=O)c2c[nH]c3cc(-c4ccc(C)cc4)ccc23)cc(OC)c1OC	1700 nM	17%	560 nM	2010 nM	–
COc1cc(C(=O)c2c[nH]c3cc(-c4cccc([N+](=O)[O-])c4)ccc23)cc(OC)c1OC	650 nM	41%	28 nM	110 nM	–
COc1ccc(-c2ccc3c(C(=O)c4cc(OC)c(OC)c(OC)c4)c[nH]c3c2)cc1O	> 20000 nM	–	1500 nM	828 nM	–
CCc1ccc(-c2ccc3c(C(=O)c4cc(OC)c(O)c(OC)c4)c[nH]c3c2)cc1	> 20000 nM	–	> 5000 nM	> 5000 nM	–
